Measured values from patent US10526322B2, “Inhibitors of kidney-type glutaminase, GLS-1” (CORNELL UNIVERSITY, priority 2014, dated 2020).

Legend:
GAC = target: T1, GAC (Mus musculus, UniProt D3Z7P3); assay: Real-time GAC enzyme activity assay coupled to glutamate dehydrogenase (NADH fluorescence); assay type: biochemical; details: for concentration inhibiting the GAC isoform compared with parent compound 968: in vitro inhibition, FIG. 9 / FIG. 11
T1 construct: (residues 72-603) was cloned into a pET23a vector; His-tag with thrombin cleavage site (N, cleaved yes); made in house
T1 sequence (D3Z7P3 72-603 isoform D3Z7P3-2): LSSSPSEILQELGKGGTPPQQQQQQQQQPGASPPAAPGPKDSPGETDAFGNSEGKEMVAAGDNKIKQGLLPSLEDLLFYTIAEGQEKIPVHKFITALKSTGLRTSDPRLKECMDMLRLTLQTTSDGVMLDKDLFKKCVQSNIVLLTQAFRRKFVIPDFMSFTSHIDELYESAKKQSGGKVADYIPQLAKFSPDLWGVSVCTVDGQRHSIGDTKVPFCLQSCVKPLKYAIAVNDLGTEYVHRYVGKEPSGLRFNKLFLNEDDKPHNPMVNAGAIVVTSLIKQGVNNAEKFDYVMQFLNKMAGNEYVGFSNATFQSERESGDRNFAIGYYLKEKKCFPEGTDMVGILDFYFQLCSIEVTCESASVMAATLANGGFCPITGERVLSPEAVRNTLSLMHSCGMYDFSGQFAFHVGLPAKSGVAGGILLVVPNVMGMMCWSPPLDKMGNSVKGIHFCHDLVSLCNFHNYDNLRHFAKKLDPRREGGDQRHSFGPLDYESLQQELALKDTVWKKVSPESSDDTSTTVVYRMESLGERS
Procedure: A plasmid encoding the mouse kidney-type glutaminase isoform 2 (GAC, GenBank Accession No. NP_001106854.1, which is hereby incorporated by reference in its entirety) (residues 72-603) was cloned into a pET23a vector containing an N-terminal histidine (His)-tag and thrombin cleavage site. The expressed protein was purified using Co^2+ affinity beads (Clontech), followed by His-tag cleavage with human thrombin (Haemetologic Technologies) overnight at 4° C., and subsequently purified by anion exchange (GE healthcare) and gel filtration chromatography. Purified GAC was stored in a high salt-containing buffer (20 mM Tris-HCl pH 8.5, 500 mM NaCl, 1 mM NaN3) at −80° C., following snap freezing in liquid N2 for long term use. Labeling recombinant GAC with small molecule probes was performed by exchanging 1.5 mg of enzyme into 50 mM HEPES, pH 7.2, and 100 mM NaCl (labeling buffer), using a PD10 desalting column (GE healthcare). The enzyme was then incubated with 50 μM (5-fold excess of enzyme) of either AlexaFluor 488 succinimidyl ester or QSY9 succinimidyl ester (Molecular Probes) for 1 hour at 4° C. After 1 hour, the labeling reaction was quenched with 150 mM Tris-HCl, pH 8.5, and unreacted probe was separated from labeled-enzyme using a PD10 desalting column, eluting labeled-GAC back into the high salt-containing buffer. The stoichiometry of labeling was determined using the probe manufacturer's reported molar absorptivity values and instructions. Briefly, the concentration of GAC was determined by first correcting absorbance at 280 nm (Abs280) for each probe, using the reported correction values (0.11 for AlexaFluor 488 and 0.23 for QSY-9) and their absorbance values at their absorbance maxima (495 nm and 562 nm, respectively). The corrected Abs280 was used along with the experimentally determined molar absorptivity of GAC (ε280=38,850 M−1 cm−1). AlexaFluor 488 and QSY-9 probes were quantified using their respective absorbance maxima and the manufacturer's reported molar absorptivity values (ε495=71,000 M−1 cm−1 and ε562=85,000 M−1 cm−1).
Real-time fluorescence monitoring of 968 binding and GAC activity through production of NADH was performed on a Varian Cary Eclipse Fluorometer, whereas small molecule inhibition and binding titrations were performed in a 96-well format in a Tecan Saphire absorbance and fluorescence plate reader. Samples for monitoring real-time binding of 968 to 488-GAC were prepared by adding 10 μL of varying concentrations of 968 prepared in DMSO to an equilibrated 1 mL sample of 10 nM 488-GAC, while observing 488 fluorescence (490 nm excitation/520 nm emission). Similarly, this method was replicated for monitoring real-time binding of 968 to mutant forms of GAC, namely 488-labeled GAC (GD391K) and 488-GAC (D391K, K316E, R459E). Real-time activity assays monitoring 968 binding and NADH production were prepared in 1 mL samples, where 10 units of glutamate dehydrogenase (Sigma) and 2 mM NAD+ (Sigma) were prepared in 50 mM Tris-Acetate, pH 8.5, 0.1 mM EDTA and equilibrated at 20° C. WT GAC (10 nM) was added and allowed to equilibrate 2 minutes before monitoring the fluorescence emission of 488-GAC (490 nm excitation, 520 nm emission) and NADH (340 nm excitation, 490 nm emission). Appropriate dilutions of 968 or BPTES prepared in DMSO were introduced after 30 seconds and allowed to equilibrate for 2 minutes before a 180 μL solution of K2HPO4 and glutamine was added to make a final concentration of 50 mM K2HPO4 and 20 mM glutamine, to initiate GAC activation. The activity of GAC was measured in a coupled assay, by monitoring the NADH produced by glutamate dehydrogenase, which converts the product of the glutaminase-catalyzed reaction, glutamate, to α-ketoglutarate and ammonia by reducing NAD+ to NADH. […]

488-GAC and QSY9-GAC = target: T2, 488-GAC and QSY9-GAC (Mus musculus, UniProt D3Z7P3); assay: FRET assay for GAC tetramer formation; assay type: binding; details: 25 nM 488-GAC and 25 nM QSY9-GAC
T2 construct: (residues 72-603) was cloned into a pET23a vector; His-tag with thrombin cleavage site (N, cleaved yes); made in house
T2 sequence (D3Z7P3 72-603 isoform D3Z7P3-2): T1 sequence (D3Z7P3 72-603 isoform D3Z7P3-2)
Procedure: Fluorescence experiments were performed using a Varian Cary Eclipse Fluorometer in the counting mode. Excitation and emission wavelengths were 490 and 520 nm, respectively. Experiments were all performed using 1-mL samples with continuous stirring at 20° C. in 50 mM Tris-Acetate, pH 8.5, 0.1 mM ethylenediamine tetraacetic acid (EDTA). For wild-type (WT) GAC titrations in the absence of inorganic phosphate, 25 nM 488-GAC was equilibrated with 25 μL of QSY9-GAC (at varying concentrations) and allowed to equilibrate for 10 minutes, at which point 75 μL of the appropriate concentration of unlabeled WT GAC was added to provide a 10-fold excess over labeled-GAC. To test whether the purified GAC mutants can form oligomers with WT GAC, 200 nM QSY9-GAC (D391K) or 200 nM QSY9-GAC (D391K, K316E, R459E) was added to an equilibrated sample of 20 nM 488-WT GAC. When assaying the effects of BPTES and 968 on oligomer formation, BPTES or 968 was added following equilibration of a sample of 25 nM QSY9-WT GAC and 25 nM 488-WT GAC. Both BPTES and 968 were prepared in DMSO, and appropriate dilutions were made so that less than 2% (v/v) DMSO was added to an experimental sample.

[1] = target: T3, 488-GAC (mouse kidney-type glutaminase isoform 2, GAC) (Mus musculus, UniProt D3Z7P3); assay: Real-time binding assay, quenching of 488-GAC fluorescence; details: 10 nM 488-GAC, 10 μM BPTES
T3 construct: (residues 72-603) was cloned into a pET23a vector; His-tag with thrombin cleavage site (N, cleaved yes); made in house
T3 sequence (D3Z7P3 72-603 isoform D3Z7P3-2): T1 sequence (D3Z7P3 72-603 isoform D3Z7P3-2)
Procedure: A plasmid encoding the mouse kidney-type glutaminase isoform 2 (GAC, GenBank Accession No. NP_001106854.1, which is hereby incorporated by reference in its entirety) (residues 72-603) was cloned into a pET23a vector containing an N-terminal histidine (His)-tag and thrombin cleavage site. The expressed protein was purified using Co^2+ affinity beads (Clontech), followed by His-tag cleavage with human thrombin (Haemetologic Technologies) overnight at 4° C., and subsequently purified by anion exchange (GE healthcare) and gel filtration chromatography. […] The stoichiometry of labeling was determined using the probe manufacturer's reported molar absorptivity values and instructions. Briefly, the concentration of GAC was determined by first correcting absorbance at 280 nm (Abs280) for each probe, using the reported correction values (0.11 for AlexaFluor 488 and 0.23 for QSY-9) and their absorbance values at their absorbance maxima (495 nm and 562 nm, respectively). The corrected Abs280 was used along with the experimentally determined molar absorptivity of GAC (ε280=38,850 M−1 cm−1). AlexaFluor 488 and QSY-9 probes were quantified using their respective absorbance maxima and the manufacturer's reported molar absorptivity values (ε495=71,000 M−1 cm−1 and ε562=85,000 M−1 cm−1). […]

CC1(C)CC(=O)C2=C(C1)c1c(ccc3cc4ccccc4cc13)NC2c1ccc(C2(C(F)(F)F)N=N2)cc1 (centres unmarked) [SU-24]
concentration inhibiting the GAC isoform compared with parent compound 968 (GAC): lower concentration than the parent compound, 968

CC1(C)CC(=O)C2=C(C1)c1cc(-c3ccccc3)ccc1NC2c1ccc(-c2ccccc2)cc1 (centres unmarked) [SU-15]
concentration inhibiting the GAC isoform compared with parent compound 968 (GAC): lower concentration than the parent compound, 968

CN(C)c1ccc(CNc2cccc3ccccc23)cc1Br [SU-20]
concentration inhibiting the GAC isoform compared with parent compound 968 (GAC): lower concentration than the parent compound, 968

O=C(Cc1ccccc1)Nc1nnc(CCSCCc2nnc(NC(=O)Cc3ccccc3)s2)s1 [BPTES]
effect on GAC tetramer formation (488-GAC emission in mixture with QSY9-GAC) (488-GAC and QSY9-GAC): immediate quenching
effect on 488-GAC fluorescence [1]: does not directly affect
inhibition of GAC activity (GAC; 10 nM 488-GAC, 10 μM BPTES): strongly inhibits

CCN(CC)c1ccc(CNc2ccc3ccccc3c2)cc1[NH2+][O-] [SU-31]
concentration inhibiting the GAC isoform compared with parent compound 968 (GAC): lower concentration than the parent compound, 968

CN(C)c1ccc(C2Nc3ccc4ccccc4c3C3=C2C(=O)CC(c2ccccc2)C3)cc1Br (centres unmarked) [SU-10]
concentration inhibiting the GAC isoform compared with parent compound 968 (GAC): lower concentration than the parent compound, 968

CN(C)c1ccc(C2Nc3ccc4cc5ccccc5cc4c3C3=C2C(=O)CC(C)(C)C3)cc1Br (centres unmarked) [SU-14]
concentration inhibiting the GAC isoform compared with parent compound 968 (GAC): lower concentration than the parent compound, 968

CN(C)c1ccc(C2Nc3c(ccc4ccccc34)C3=C2C(=O)CC(C)(C)C3)cc1Br (centres unmarked) [SU-1]
concentration inhibiting the GAC isoform compared with parent compound 968 (GAC): lower concentration than the parent compound, 968

[O-][NH2+]c1cc(CNc2ccc3ccccc3c2)ccc1N1CCCC1 [SU-29]
concentration inhibiting the GAC isoform compared with parent compound 968 (GAC): lower concentration than the parent compound, 968
